In assay [1] the target is human GABAA α1β2γ1 receptor (Homo sapiens (Human), UniProt P14867+Q8N1C3). As to the kind of experiment: Radioligand binding assay, competition for [3H]RO7239181, γ1-containing GABAA subtype α1β2γ1. Conditions: membranes of HEK293F cells, [3H]RO7239181 20-30 nM, mean of two determinations. The procedure: The affinity of compounds at GABAA γ1 subunit-containing receptors was measured by competition for [^3H]RO7239181 (67.3 Ci/mmol; Roche) binding to membranes from HEK293F cells (ThermoFisher R^79007) expressing human (transiently transfected) receptors of composition α5β2γ1, α2β2γ1, α1β2γ1.
Harvested pellets from HEK293F cells expressing the different GABAA receptor subtypes were resuspended in Mannitol Buffer pH 7.2-7.4 (Mannitol 0.29M, Triethylamine 10 mM, Acetic acid 10 mM, EDTA 1 mM plus protease inhibitors (20 tablets Complete, Roche Diagnostics Cat. No. 05 056 489 001 per liter)), washed two times and then resuspended at 1:10 to 1:15 dilution in the same buffer. Cell disruption was performed by stirring the suspension in a Parr vessel #4637 at 435 psi for 15 minutes, and then the suspensions were centrifuged at 1000×g for 15 minutes at 4° C. (Beckman Avanti J-HC: rotor JS-4.2). The supernatant (S1) was transferred in a 21 Schott flask and the pellet (P1) was resuspended with Mannitol Buffer up to 175 ml. The resuspended pellet was transferred into a 250 ml Corning centrifugal beaker and centrifuged at 1500×g for 10 minutes at 4° C. (Beckman Avanti J-HC: rotor JS-4.2). The supernatant (S1) was then transferred in the 21 Schott flask and the pellet was discarded. The supernatants (S1) were centrifuged in 500 ml Beckman polypropylene centrifugal beaker at 15 000×g for 30 minutes at 4° C. (Beckman Avanti J-20 XP: rotor JLA-10.500). The pellet (P2) was resuspended with Mannitol Buffer 1:1 and frozen at −80° C. The supernatant (S2) was centrifuged in 100 ml Beckman polypropylene centrifugal tubes at 48000×g for 50 minutes at 4° C. (Beckman Avanti J-20 XP: rotor JA-18). The supernatant (S3) was discarded and the pellet (P3) was resuspended with 1:1 Mannitol Buffer. The P2 and P3 protein concentration was determined with the BIORAD Standard assay method with bovine serum albumin as standard and measured on the NANO-Drop 1000. The membrane suspension was aliquots (500 μl per tube) and stored at −80° C. until required.
Membrane homogenates were resuspended and polytronised (Polytron PT1200E Kinematica AG) in Potassium Phosphate 10 mM, KCl 100 mM binding buffer at pH 7.4 to a final assay concentration determined with a previous experiment.
Assays were incubated to equilibrium for 1 hour at 4° C. and then, membranes were filtered onto unifilter (96-well white microplate with bonded GF/C filters preincubated 20-50 minutes in 0.3% Polyethylenimine) with a Filtermate 196 harvester (Packard BioScience) and washed 4 times with cold Potassium Phosphate 10 mM pH 7.4, KCl 100 mM binding buffer. After anhydrousing, filter-retained radioactivity was detected by liquid scintillation counting. Ki values were calculated using Excel-Fit (Microsoft) and are the means of two determinations.

In another assay the target is h-GABA-A α2β2γ1 (Homo sapiens (Human), UniProt P47869+Q8N1C3). The assay can be described thus: Two-electrode voltage clamp electrophysiology in Xenopus oocytes expressing GABAA receptors, modulation of GABA EC20 current. The assay is classed as cell-based. Conditions: for Efficacy (GABA) %: % modulation of GABA EC20 = 100*(Fold increase−1), compound at 30-fold Ki α2β2γ1; for Fold increase h-GABA-A α2β2γ1 oocyte @ 30-fold Ki: Xenopus oocytes, GABA EC20, test compound at approx. 30-fold its Ki α2β2γ1. In general terms: Two-electrode voltage clamp holds a large cell at a set potential and records current.

This note sets out measurements from patent US20240287082A1, “NEW BENZODIAZEPINE DERIVATIVES AS GABA A GAMMA1 PAM” (Hoffmann-La Roche Inc., priority 2021, published 2024).

As for `C[C@@H]1N=C(c2c(F)cccc2F)c2c(ccc(C(F)(F)F)c2Cl)-n2ccc(=O)nc21` [Example 10, (5S)-8-chloro-7-(2,6-difluorophenyl)-5-methyl-9-(trifluoromethyl)-5H-pyrimido[1,2-a][1,4]benzodiazepin-3-one], the inhibition constant Ki in assay [1] is 159 nM. At h-GABA-A α2β2γ1, the “Efficacy (GABA) %” value amounted to 164% and the “Fold increase h-GABA-A α2β2γ1 oocyte @ 30-fold Ki” value came to 2.64.

`O=c1ccn2c(n1)CN=C(c1ncccc1F)c1c-2ccc(Cl)c1Cl` [Example 3, 8,9-dichloro-7-(3-fluoro-2-pyridyl)-5H-pyrimido[1,2-a][1,4]benzodiazepin-3-one] came in with a Ki in assay [1] of 183 nM. Besides, on h-GABA-A α2β2γ1, the “Efficacy (GABA) %” value stood at 192% and the “Fold increase h-GABA-A α2β2γ1 oocyte @ 30-fold Ki” value is on record as 2.92.

What is called Ki is the dissociation constant of the complex between target and ligand, obtained from inhibition or displacement. A lower Ki goes with tighter binding.
